Assay results from ChEMBL document CHEMBL1949553, “Microbial transformation of deoxyandrographolide and their inhibitory activity on LPS-induced NO production in RAW 264.7 macrophages” (Bioorg Med Chem Lett, 2012).

Tests used:
[1] = Cytotoxicity against mouse RAW264.7 cells assessed as cell viability at 100 uM after 24 hrs by MTT assay; assay type: cell-based; details: read-out: Activity
RAW264.7 = assay: Antiinflammatory activity in mouse RAW264.7 cells assessed as inhibition of LPS-induced NO production after 24 hrs by Griess method; assay type: functional, cell-based; details: RAW264.7, 24 h

Row | SMILES | viability at 24 h, 100 µM [1] | IC50 (RAW264.7)
1 | C=C1[C@H](O)C[C@H]2[C@@](C)(CCC(=O)[C@@]2(C)CO)[C@@H]1CCC1=CCOC1=O | 102% | 58.2 µM
2 | C=C1CC[C@@H]2[C@](C)(CO)[C@H](O)CC[C@@]2(C)[C@]1(O)/C=C/C1=CCOC1=O | 98.6% | 97.2 µM
3 | C=C1CC[C@H]2[C@@](C)(CCC(=O)[C@@]2(C)CO)[C@@H]1CCC1=CCOC1=O | 110% | 10.1 µM
4 | C[C@@]1(CO)[C@H](O)CC[C@@]2(C)C(CCC3=CCOC3=O)=C(CO)CC[C@H]12 | 91.1% | > 100 µM
5 | C=C1CC[C@H]2[C@@](C)([C@H](O)CC(=O)[C@@]2(C)CO)[C@@H]1CCC1=CCOC1=O | 100% | 61.9 µM
6 | C=C1[C@@H](CCC2=CCOC2=O)[C@]2(C)CC[C@@H](O)[C@@](C)(CO)[C@H]2C[C@@H]1O | 89.1% | > 100 µM
7 | CO[C@]1(CO)CC[C@@H]2[C@](C)(CO)[C@H](O)CC[C@@]2(C)[C@@H]1CCC1=CCOC1=O | 100% | > 100 µM
8 | C=C1CC[C@@H]2[C@](C)(CO)[C@H](O)CC[C@@]2(C)[C@@H]1C/C=C1/C(=O)OC[C@@H]1O | 65.2% | 26.5 µM
9 | C=C1CC[C@@H]2[C@](C)(CO)[C@H](O)CC[C@@]2(C)[C@@H]1CCC1=CCOC1=O [DEOXYANDROGRAPHOLIDE] | 100% | 21 µM
10 | C[C@@]12CCC(=O)[C@@](C)(CO)[C@H]1CC[C@@]1(CO1)[C@H]2CCC1=CCOC1=O | 63.1% | 89.2 µM
11 | C[C@@]12CCC(=O)[C@@](C)(CO)[C@H]1CCC(CO)=C2CCC1=CCOC1=O | 101% | 79 µM
12 | C[C@]1(CO)[C@H]2CC[C@@]3(CO3)[C@@H](CCC3=CCOC3=O)[C@]2(C)CC[C@H]1O | 88.4% | > 100 µM
13 | C[C@@]1(CO)[C@H](O)CC[C@@]2(C)C(CCC3=CCOC3=O)=C(C=O)CC[C@H]12 | 99.7% | > 100 µM
14 | C=C1CC[C@@H]2[C@](C)(CO)[C@H](O)CC[C@@]2(C)[C@@H]1C/C=C(/C(=O)O)[C@@H](O)CO | 104% | > 100 µM
15 | C[C@@]12CCC(=O)[C@@](C)(CO)[C@H]1CC=C(CO)[C@H]2CCC1=CCOC1=O | 104% | 71.3 µM
16 | C=C1CC[C@@H]2[C@](C)(CO)[C@H](O)C[C@@H](O)[C@@]2(C)[C@@H]1CCC1=CCOC1=O | 101% | > 100 µM
17 | C=C1CC[C@@H]2[C@](C)(CO)[C@H](O)CC[C@@]2(C)[C@@H]1C/C=C1/C(=O)OC[C@H]1O [ANDROGRAPHOLIDE] | 49.6% | 6.96 µM
18 | C=C1CC[C@@H]2[C@](C)(CO)[C@H](O)CC[C@@]2(C)[C@]1(O)CCC1=CCOC1=O | 86% | > 100 µM
19 | C=C1CC[C@H]2[C@@](C)(C=CC(=O)[C@@]2(C)CO)[C@@H]1CCC1=CCOC1=O | 100% | 10 µM
20 | C=C1CC[C@@H]2[C@](C)(COC3O[C@H](CO)[C@@H](O)[C@H](O)[C@H]3O)CCC[C@@]2(C)[C@@H]1CCC1=CCOC1=O (some centres not stated) | 81.4% | > 100 µM
21 | C[C@]1(CO)[C@H]2CC=C(CO)[C@@H](/C=C/C3=CCOC3=O)[C@]2(C)CC[C@H]1O | 106% | 39.1 µM
22 | C=C1CC[C@@H]2[C@](C)(CO)CCC[C@@]2(C)[C@@H]1CCC1=CCOC1=O [ANDROGRAPANIN] | 99.8% | 11.6 µM
23 | C=C1CC[C@H]2[C@@](C)(C[C@H](O)C(=O)[C@@]2(C)CO)[C@@H]1CCC1=CCOC1=O | 103% | 12.2 µM
24 | C=C1CC[C@H]2[C@@](C)(CCC(=O)[C@@]2(C)CO)[C@@H]1/C=C/C1=CCOC1=O | 104% | 75.3 µM
25 | CN(C)c1ccc(O)c2c1C[C@H]1C[C@H]3[C@H](N(C)C)C(O)=C(C(N)=O)C(=O)[C@@]3(O)C(O)=C1C2=O [MINOCYCLINE] | 100% | 34.9 µM
26 | C=C1CC[C@@H]2[C@](C)(CO)C(=O)CC[C@@]2(C)[C@]1(O)CCC1=CCOC1=O | 87.5% | 28.4 µM
